Calls of active or inactive are those of the source. The calls are words filed in the database; no cut-off is given here.
Assays:
[1] = Protection index, ratio of TD50 for neurotoxicity in ip dosed mouse to ED50 for anticonvulsant activity in ip dosed mouse by subcutaneous pentylenetetrazole test; assay type: toxicity, organism-based; conditions: in vivo, read-out: PI
[2] = Protection index, ratio of TD50 for neurotoxicity in ip dosed mouse to ED50 for anticonvulsant activity in ip dosed mouse by maximal electroshock seizure test; assay type: toxicity, organism-based; conditions: in vivo, read-out: PI
[3] = tested on: Mus musculus; assay: Anticonvulsant activity in ip dosed mouse assessed as protection against ScPTZ-induced epilepsy by subcutaneous pentylenetetrazole test; assay type: functional
[4] = tested on: Mus musculus; assay: Anticonvulsant activity in ip dosed mouse assessed as protection against tonic-clonic seizures by maximal electroshock seizure test; assay type: functional
[5] = Neurotoxicity activity in ip dosed mouse assessed as induction of motor impairment by rotarod test; assay type: toxicity, organism-based; conditions: in vivo
[6] = Neurotoxicity in ip dosed mouse assessed as minimum dose required for induction of motor impairment measured after 0.5 hrs by rotarod test; assay type: toxicity, organism-based; conditions: in vivo
[7] = Neurotoxicity in mouse assessed as induction of motor impairment at 300 mg/kg, ip measured after 4 hrs by rotarod test; assay type: toxicity, organism-based; conditions: in vivo
[8] = tested on: Mus musculus; assay: Anticonvulsant activity in mouse assessed as protection against tonic-clonic seizures at 300 mg/kg, ip measured after 0.5 hrs by maximal electroshock seizure test; assay type: functional, organism-based
[9] = tested on: Mus musculus; assay: Anticonvulsant activity in ip dosed mouse assessed as protection against ScPTZ-induced epilepsy measured after 4 hrs by subcutaneous pentylenetetrazole test; assay type: functional
[10] = tested on: Mus musculus; assay: Anticonvulsant activity in mouse assessed as protection against ScPTZ-induced epilepsy at 300 mg/kg, ip measured after 4 hrs by subcutaneous pentylenetetrazole test; assay type: functional, organism-based
[11] = Protection index, ratio of TD50 for neurotoxicity in ip dosed mouse to ED50 for anticonvulsant activity in ip dosed mouse measured after 4 hrs by subcutaneous pentylenetetrazole test; assay type: toxicity, organism-based; conditions: in vivo, read-out: PI
[12] = tested on: Mus musculus; assay: Anticonvulsant activity in mouse assessed as protection against tonic-clonic seizures at 300 mg/kg, ip measured after 4 hrs by maximal electroshock seizure test; assay type: functional, organism-based
[13] = tested on: Mus musculus; assay: Anticonvulsant activity in ip dosed mouse assessed as minimum dose required for protection against ScPTZ-induced epilepsy measured after 0.5 hrs by subcutaneous pentylenetetrazole test; assay type: functional
[14] = tested on: Mus musculus; assay: Anti-convulsant activity in mouse assessed as protection of animals against psychomotor seizures at 100 mg/kg, ip measured after 0.5 hrs by 6 Hz limbic seizure test; assay type: functional
[15] = tested on: Mus musculus; assay: Anticonvulsant activity in ip dosed mouse assessed as protection against ScPTZ-induced epilepsy measured after 0.5 hrs by subcutaneous pentylenetetrazole test; assay type: functional
[16] = tested on: Mus musculus; assay: Anticonvulsant activity in ip dosed mouse assessed as minimum dose required for protection against tonic-clonic seizures measured after 4 hrs by maximal electroshock seizure test; assay type: functional
[17] = tested on: Mus musculus; assay: Anti-convulsant activity in ip dosed mouse assessed as protection against psychomotor seizures measured after 0.5 hrs by 6 Hz limbic seizure test; assay type: functional
[18] = tested on: Mus musculus; assay: Anticonvulsant activity in ip dosed mouse assessed as minimum dose required for protection against tonic-clonic seizures measured after 0.5 hrs by maximal electroshock seizure test; assay type: functional
[19] = Protection index, ratio of TD50 for neurotoxicity in ip dosed mouse to ED50 for anticonvulsant activity in ip dosed mouse measured after 0.5 hrs by subcutaneous pentylenetetrazole test; assay type: toxicity, organism-based; conditions: in vivo, read-out: PI
[20] = Protection index, ratio of TD50 for neurotoxicity in ip dosed mouse to ED50 for anticonvulsant activity in ip dosed mouse measured after 0.5 hrs by 6 Hz limbic seizure test; assay type: toxicity, organism-based; conditions: in vivo, read-out: PI
[21] = tested on: Mus musculus; assay: Anti-convulsant activity in mouse assessed as protection of animals against psychomotor seizures at 100 mg/kg, ip measured after 4 hrs by 6 Hz limbic seizure test; assay type: functional
[22] = tested on: Mus musculus; assay: Anticonvulsant activity in ip dosed mouse assessed as minimum dose required for protection against ScPTZ-induced epilepsy measured after 4 hrs by subcutaneous pentylenetetrazole test; assay type: functional
[23] = tested on: Mus musculus; assay: Anticonvulsant activity in mouse assessed as protection against ScPTZ-induced epilepsy at 300 mg/kg, ip measured after 0.5 hrs by subcutaneous pentylenetetrazole test; assay type: functional, organism-based
[24] = Neurotoxicity in ip dosed mouse assessed as minimum dose required for induction of motor impairment measured after 4 hrs by rotarod test; assay type: toxicity, organism-based; conditions: in vivo
[25] = species: Homo sapiens; assay: Inhibition of Sodium channel site 2 (unknown origin) at 100 uM
[26] = species: Homo sapiens; assay: Inhibition of GABAA receptor (unknown origin) at 100 uM
[27] = species: Homo sapiens; assay: Inhibition of L-type calcium channel (unknown origin) at 100 uM
[28] = species: Homo sapiens; assay: Inhibition of NMDA receptor (unknown origin) at 100 uM
[29] = Neurotoxicity in mouse assessed as induction of motor impairment at 300 mg/kg, ip measured after 0.5 hrs by rotarod test; assay type: toxicity, organism-based; conditions: in vivo
[30] = tested on: Mus musculus; assay: Anti-convulsant activity in ip dosed mouse assessed as protection against psychomotor seizures measured after 0.25 hrs by 6 Hz limbic seizure test; assay type: functional
[31] = tested on: Mus musculus; assay: Anticonvulsant activity in ip dosed mouse assessed as protection against ScPTZ-induced epilepsy measured after 0.25 hrs by subcutaneous pentylenetetrazole test; assay type: functional

For O=C1CC(C(c2ccccc2)c2ccccc2)C(=O)N1CN1CCN(c2cccc(C(F)(F)F)c2)CC1 (centres undefined), the selectivity ratio [1] was greater than 6.84, the selectivity ratio [2] was greater than 4.95 and the ED50 [3] was 73 mg/kg. The ED50 [4] was 101 mg/kg and the TD50 [5] was greater than 500 mg/kg.
With COc1ccccc1N1CCN(CN2C(=O)CC(C(C)c3ccccc3)C2=O)CC1 (centres undefined) the MTD50 [6] was 300 mg/kg, the Activity [7] was “Non-Toxic” and the Activity [8] was “inactive”. The ED50 [9] was 48 mg/kg, the Activity [10] was “inactive” and the TD50 [5] was 128 mg/kg. For the same molecule, the selectivity ratio at 4 h [11] was 2.66, the Activity [12] was “inactive” and the “MED=>50” value [13] was 30 mg/kg.
In the case of O=C1CC(Cc2ccccc2)C(=O)N1CN1CCOCC1 (racemic), the Activity [14] is reported as 100%, the MTD50 [6] is reported as 300 mg/kg and the Activity [7] is reported as “Non-Toxic”. For the same molecule, the ED50 [15] was 87 mg/kg, the “MED=>50” value [16] was 300 mg/kg and the ED50 [17] was 53 mg/kg. For the same molecule, the minimum effective dose [18] was 300 mg/kg, the selectivity ratio at 0.5 h [19] was 2.05 and the selectivity ratio at 0.5 h [20] was 3.37. The Activity [21] was 0%, the TD50 [5] was 179 mg/kg and the “MED=>50” value [13] was 100 mg/kg. The “MED=>50” value [22] was 100 mg/kg.
With O=C1CC(Cc2ccccc2)C(=O)N1CN1CCN(c2ccc(F)cc2)CC1 (racemic) the Activity [23] was “inactive”, the MTD50 [6] was 300 mg/kg and the “MED=>50” value [16] was 300 mg/kg. For the same molecule, the MTD50 [24] was 300 mg/kg, the minimum effective dose [18] was 300 mg/kg and the Activity [10] was “inactive”.
In the case of CC(c1ccccc1)C1CC(=O)N(CN2CCN(C)CC2)C1=O.Cl (racemic), the Activity [14] is reported as 100%, the MTD50 [6] is reported as 300 mg/kg and the Activity [7] is reported as “Non-Toxic”. It also gave an ED50 [15] of 39 mg/kg, an ED50 [17] of 36 mg/kg and an inhibition [25] of less than 50%. For the same molecule, the minimum effective dose [18] was 300 mg/kg, the selectivity ratio at 0.5 h [19] was 5.87 and the selectivity ratio at 0.5 h [20] was 6.36. For the same molecule, the inhibition [26] was less than 50%, the inhibition [27] was less than 50% and the Activity [21] was 0%. For the same molecule, the TD50 [5] was 229 mg/kg, the Activity [12] was “inactive” and the “MED=>50” value [13] was 30 mg/kg. The “MED=>50” value [22] was 300 mg/kg and the inhibition [28] was less than 50%.
With O=C1CC(Cc2ccccc2)C(=O)N1CN1CCN(c2ccc(Cl)cc2)CC1 (racemic) the Activity [23] was “inactive”, the MTD50 [24] was 300 mg/kg and the Activity [8] was “inactive”. The Activity [29] was “Non-Toxic”, the Activity [10] was “inactive” and the Activity [12] was “inactive”.
In the case of O=C1CC(Cc2ccccc2)C(=O)N1CN1CCN(c2ncccn2)CC1 (racemic), the Activity [23] is reported as “inactive”, the MTD50 [6] is reported as 300 mg/kg and the MTD50 [24] is reported as 300 mg/kg. For the same molecule, the Activity [8] was “inactive”, the Activity [12] was “inactive” and the “MED=>50” value [22] was 100 mg/kg.
In the case of CN1CCN(CN2C(=O)CC(Cc3ccccc3)C2=O)CC1.Cl (racemic), the Activity [14] is reported as 66%, the Activity [7] is reported as “Non-Toxic” and the ED50 [15] is reported as 95 mg/kg. It also gave an ED50 [17] of 65 mg/kg, a minimum effective dose [18] of 300 mg/kg and a selectivity ratio at 0.5 h [19] of 3.41. The Activity [29] was “Non-Toxic”, the selectivity ratio at 0.5 h [20] was 5 and the Activity [21] was 0%. The TD50 [5] was 324 mg/kg, the Activity [12] was “inactive” and the “MED=>50” value [13] was 100 mg/kg. For the same molecule, the “MED=>50” value [22] was 300 mg/kg.
With CC(c1ccccc1)C1CC(=O)N(CN2CCN(CCO)CC2)C1=O.Cl (racemic) the Activity [14] was 100%, the MTD50 [6] was 300 mg/kg and the Activity [7] was “Non-Toxic”. The ED50 [17] was 30 mg/kg, the minimum effective dose [18] was 300 mg/kg and the selectivity ratio at 0.5 h [20] was 9.66. For the same molecule, the Activity [21] was 0%, the TD50 [5] was 290 mg/kg and the Activity [12] was “inactive”. For the same molecule, the “MED=>50” value [13] was 300 mg/kg and the “MED=>50” value [22] was 300 mg/kg.
With CC(c1ccccc1)C1CC(=O)N(CN2CCN(C3CCCCC3)CC2)C1=O (racemic) the Activity [14] was 100%, the MTD50 [6] was 300 mg/kg and the Activity [7] was “Non-Toxic”. For the same molecule, the ED50 [15] was 101 mg/kg, the ED50 [17] was 75 mg/kg and the Activity [8] was “inactive”. For the same molecule, the selectivity ratio at 0.5 h [19] was 1.94, the selectivity ratio at 0.5 h [20] was 2.61 and the Activity [10] was “inactive”. For the same molecule, the Activity [21] was 0%, the TD50 [5] was 196 mg/kg and the Activity [12] was “inactive”. The “MED=>50” value [13] was 100 mg/kg.
For O=C1CC(Cc2ccccc2)C(=O)N1CN1CCN(c2ccc(Cl)c(Cl)c2)CC1 (racemic), the Activity [14] was 0%, the “MED=>50” value [16] was 300 mg/kg and the MTD50 [24] was 300 mg/kg. For the same molecule, the Activity [8] was “inactive”, the Activity [29] was “Non-Toxic” and the ED50 [9] was 106 mg/kg. It also gave an Activity [21] of 0%, a TD50 [5] of 246 mg/kg and a selectivity ratio at 4 h [11] of 2.32. For the same molecule, the “MED=>50” value [13] was 300 mg/kg and the “MED=>50” value [22] was 100 mg/kg.
CCC1(C)CC(=O)NC1=O (centres undefined) [ETHOSUXIMIDE] gave an ED50 [30] greater than 200 mg/kg and an ED50 [31] of 140 mg/kg.
For CCCC(CCC)C(=O)O [VALPROIC ACID], the ED50 [15] was 239 mg/kg and the ED50 [17] was 131 mg/kg.

From ChEMBL document CHEMBL4715709, “Synthesis and evaluation of anticonvulsant properties of new N-Mannich bases derived from 3-(1-phenylethyl)- and 3-benzyl-pyrrolidine-2,5-dione” (Bioorg Med Chem Lett, 2016)
